From patent US11213020B2, “Atopic dermatitis model non-human animal and use thereof” (KYUSHU UNIVERSITY, NATIONAL UNIVERSITY CORPORATION, priority 2016, dated 2022)

Tests used:
EPAS1 protein = experiment: Western blotting of EPAS1 expression in CD4+ T cells treated with EPAS1 inhibitor; type: cell-based; conditions: human CD4+ T cells (patients with atopic dermatitis and healthy controls), inhibitor at 30 μM, FIG. 44
From the text: (§1) Human peripheral blood samples were collected from atopic dermatitis patients and healthy volunteers in compliance with Institutional Review Board protocols of the facility. Human peripheral blood mononuclear cells (PBMC) were separated by Percoll (GE Healthcare) gradient centrifugation. The CD4^+ T cells were isolated from PBMCs by magnetic sorting by using Dynabeads human CD4 followed by treatment with DETACHaBEAD human CD4 (Life Technologies).
(§2) After being suspended in complete RPMI 1640 medium, CD4^+ T cells (3×10^5 cells/well) were stimulated in a 24-well plate coated with anti-human CD3ε antibody (model “Hit3a”, Tonbo Biosciences) for 6 hours. In some experiments, the CD4^+ T cells were treated with EPAS1 inhibitors, FM19G11 or HIFVII at 30 μM (both from Calbiochem).
Cells were lysed in 20 mM Tris-HCl buffer (pH 7.5) containing 1% Triton X-100, 150 mM NaCl, 1 mM EDTA, 1 mM EGTA, 2.5 mM sodium pyrophosphate, 1 mM β-glycerophosphate, 1 mM Na3VO4, and complete protease inhibitors (Roche).
After centrifugation, the supernatants were mixed with an equal volume of 2× sample buffer (125 mM Tris-HCl, 0.01% bromophenacyl bromide, 4% SDS, 20% glycerol, and […] dithiothreitol). Samples were boiled for 5 minutes and analyzed by inmmunoblotting.
The following antibodies were used. […]

IL-31 gene = IL-31 gene expression in CD4+ T cells from patients with atopic dermatitis following TCR stimulation (real-time PCR); type: cell-based, human; conditions: anti-CD3ε stimulation 6 hours, inhibitor at 30 μM, FIG. 45 (a), (c)
From the text: as §1, §2
(§3) Total RNA was extracted using ISOGEN (trade name, Nippon Gene). After treatment with RNase-free DNase I (Life Technologies), RNA samples were reverse-transcribed with oligo (dT) primers (Life Technologies) and SuperScript III reverse transcriptase (Life Technologies) for amplification by PCR.
(§4) Real-time PCR was performed using ABI PRISM 7,000 Sequence Detection System (trade name, Applied Biosystems) and SYBR Green PCR Master Mix (Applied Biosystems).
(§5) The expression levels of human and mouse target genes were normalized based on expression levels of GAPDH and HPRT. […]

IL-2 gene = IL-2 gene expression in CD4+ T cells from patients with atopic dermatitis following TCR stimulation (real-time PCR); type: cell-based, human; conditions: anti-CD3ε stimulation 6 hours, inhibitor at 30 μM, FIG. 45 (b)
From the text: as §1, §2, §3, §4, §5

## Cc1ccc(C(=O)COC(=O)c2cccc(NC(=O)c3ccc([N+](=O)[O-])cc3[N+](=O)[O-])c2)cc1 [FM19G11, 3-[(2,4-dinitrobenzoyl)amino]-benzoic acid 2-(4-methylphenyl)-2-oxoethyl ester]
EPAS1 protein
  expression level of EPAS1 protein: markedly decreased
IL-31 gene
  expression of the IL-31 gene following TCR stimulation: markedly suppressed
IL-2 gene
  expression levels of the IL-2 gene following TCR stimulation: comparable
